ChEMBL document CHEMBL3137667, “[Drug-induced liver injury; fourteenth updated edition of the bibliographic database of liver injuries and related drugs]” (Gastroenterol Clin Biol, 2004)

Columns and labels:
[1] = Highest frequency of acute liver toxicity observed during clinical trials, expressed as a percentage. [column '% AIGUE' in source]; settings: human
[2] = human
[3] = human; remark: listed apart in the source
[4] = human; remark: listed apart in the source
[5] = human; remark: listed apart in the source
[6] = human, serum, 4383 h
[7] = human; remark: listed apart in the source
[8] = human; remark: listed apart in the source
[9] = human; remark: listed apart in the source
[10] = human, serum
[11] = human; remark: listed apart in the source
[12] = Highest frequency of moderate liver toxicity observed during clinical trials, expressed as a percentage. [column '% BIOL' in source]; settings: human
[13] = Times to onset, minimal and maximal, observed in the indexed observations. [column 'DELAI' in source]; settings: human
[14] = human, serum; remark: listed apart in the source
[15] = Presence of at least one case with successful reintroduction. [column 'REINT' in source]; settings: human
[16] = human; remark: listed apart in the source
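For Hepatotoxicity (association with vascular disease) in this document: count of indexed literature references reporting vascular liver injury in humans, e.g. peliosis hepatitis, hepatic veno-occlusive disease or Budd-Chiari syndrome.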
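For Hepatotoxicity (benign tumour) in this document: value is a count of indexed literature references citing a benign tumour confirmed by histopathology.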
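For Hepatotoxicity (choleostasis) in this document: human cholestatic liver injury, shown by histopathology or by peak ALT or AST elevation over alkaline phosphatase ratio below 2, value counts indexed literature reports.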
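For Hepatotoxicity (chronic liver disease) in this document: chronic liver injury confirmed by histopathology or persistently raised serum aminotransferase activity beyond 6 months, value given as the count of indexed literature references.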
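For Hepatotoxicity (cirrhosis) in this document: value is a count of indexed literature references reporting cirrhosis confirmed by histopathology.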
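For Hepatotoxicity (cytolytic) in this document: human cytolytic liver injury, shown by histopathology or by a ratio above 5 of peak ALT or AST elevation to alkaline phosphatase elevation, value counts indexed references.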
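For Hepatotoxicity (granulomatous hepatitis) in this document: value is a count of indexed literature references reporting granulomatous liver disease confirmed by histopathology.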
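For Hepatotoxicity (malignant tumour) in this document: malignant tumour confirmed by histopathology, value gives the count of indexed literature references reporting it.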
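For Hepatotoxicity (severe hepatitis) in this document: human clinical data: severe hepatitis, meaning potentially life-threatening liver failure or clinically observed cases, the value counts how many indexed literature references report it.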
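For Hepatotoxicity (steatosis) in this document: steatosis confirmed by histopathology, value is the count of indexed references.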

SMILES | Hepatotoxicity (acute) [1] | Hepatotoxicity (association with vascular disease) [2] | Hepatotoxicity (cirrhosis) [3] | Hepatotoxicity (benign tumour) [4] | Hepatotoxicity (steatosis) [5] | Hepatotoxicity (chronic liver disease) [6] | Hepatotoxicity (severe hepatitis) [7] | Hepatotoxicity (cytolytic) [8] | Hepatotoxicity (choleostasis) [9] | Hepatotoxicity (moderate) [10] | Hepatotoxicity (granulomatous hepatitis) [11] | Hepatotoxicity (moderate) [12] | Hepatotoxicity (time to onset) [13] | Hepatotoxicity (acute) [14] | Hepatotoxicity (successful reintroduction) [15] | Hepatotoxicity (malignant tumour) [16] | also measured
C/C=C(/CC)C(=O)NC(N)=O | 0% | 0 | 0 | 0 | 0 | 0 | 0 | 0 | 0 | 0 | 0 | 0% | 3 weeks | 1 | yes | 0 | –
Nc1nc(N)c2nc(-c3ccccc3)c(N)nc2n1 | 0% | 0 | 0 | 0 | 0 | 0 | 1 | 1 | 0 | 1 | 0 | 0% | 2 days - 3 weeks | 1 | yes | 0 | –
N[C@@H](Cc1ccc(N(CCCl)CCCl)cc1)C(=O)O | 0% | 2 | 0 | 0 | 0 | 0 | 0 | 0 | 1 | 1 | 0 | 8% | 6 days - 7 weeks | 2 | yes | 0 | –
O=C(O)COC(=O)Cc1ccccc1Nc1c(Cl)cccc1Cl [ACECLOFENAC] | 0% | 0 | 0 | 0 | 0 | 0 | 0 | 2 | 0 | 5 | 0 | 3.3% | 1 week - 3 weeks | 3 | yes | 0 | –
CCC1(c2ccc(N)cc2)CCC(=O)NC1=O (stereo not drawn) [AMINOGLUTETHIMIDE] | 0% | 0 | 0 | 0 | 0 | 0 | 0 | 2 | 3 | 4 | 0 | 67% | 1 day - 10 weeks | 4 | yes | 0 | –
CCN(CC)CCCN(c1ccccc1)C1Cc2ccccc2C1 [APRINDINE] | 0.1% | 0 | 0 | 0 | 0 | 0 | 0 | 4 | 7 | 1 | 1 | 1% | 5 days - 2 months | 9 | yes | 0 | –
O=C1C(O)=C([C@H]2CC[C@H](c3ccc(Cl)cc3)CC2)C(=O)c2ccccc21 [ATOVAQUONE] | 5.3% | 0 | 0 | 0 | 0 | 0 | 0 | 2 | 0 | 9 | 0 | 16% | 10 days - 6 weeks | 2 | yes | 0 | –
CCc1oc2ccccc2c1C(=O)c1cc(Br)c(O)c(Br)c1 [BENZBROMARONE] | 0% | 0 | 0 | 0 | 0 | 0 | 4 | 5 | 0 | 1 | 0 | 0% | 1.5 months - 5 months | 5 | yes | 0 | –
CNC1=Nc2ccc(Cl)cc2C(c2ccccc2)=[N+]([O-])C1 [CHLORDIAZEPOXIDE] | 0% | 0 | 0 | 0 | 0 | 0 | 0 | 1 | 3 | 3 | 0 | 11% | 2 days - 3 years | – | yes | 0 | –
CCc1c2c(nc3ccc(OC(=O)N4CCC(N5CCCCC5)CC4)cc13)-c1cc3c(c(=O)n1C2)COC(=O)[C@]3(O)CC [IRINOTECAN] | – | 0 | 0 | 0 | 0 | 0 | – | 1 | 2 | 12 | 0 | – | – | 3 | yes | 0 | Hepatotoxicity (acute) ([1]; Liver): 4.2%; Hepatotoxicity (severe hepatitis) ([7]; Liver): 0; Hepatotoxicity (moderate) ([12]; Liver): 13.3%
O=[N+]([O-])O[C@H]1CO[C@H]2[C@@H]1OC[C@H]2O[N+](=O)[O-] [ISOSORBIDE DINITRATE] | 0% | 0 | 0 | 0 | 0 | 0 | 0 | 0 | 0 | 1 | 0 | 0% | – | 1 | yes | 0 | –
COc1c2occc2cc2ccc(=O)oc12 [METHOXSALEN] | – | 0 | 0 | 0 | 0 | 0 | – | 3 | 0 | 1 | 0 | – | 2 hours - 5 months | – | yes | 0 | Hepatotoxicity (acute) ([1]; Liver): 0%; Hepatotoxicity (severe hepatitis) ([7]; Liver): 1; Hepatotoxicity (moderate) ([12]; Liver): 0%
COc1cc(Cc2cnc(N)nc2N)cc(OC)c1OC [TRIMETHOPRIM] | – | 0 | 0 | 0 | 0 | 0 | – | – | – | 1 | – | – | 5 days - 24 days | – | yes | 0 | Hepatotoxicity (acute) ([1]; Liver): 0%; Hepatotoxicity (severe hepatitis) ([7]; Liver): 1; Hepatotoxicity (cytolytic) ([8]; Liver): 2; Hepatotoxicity (choleostasis) ([9]; Liver): 5; Hepatotoxicity (granulomatous hepatitis) ([11]; Liver): 0; Hepatotoxicity (moderate) ([12]; Liver): 5.9%
COc1cc(C(=S)N2CCOCC2)cc(OC)c1OC [TRITIOZINE] | 0% | 0 | 0 | 0 | 0 | 0 | 0 | 0 | 0 | 1 | 0 | 3% | – | 2 | yes | 0 | –
